Values joined by “and” are separate entries in the source; they are usually repeats but may differ in a detail not shown here. Equal entries are not always repeated.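 Results reflect a 48-hour exposure of cells in 96-well plates to compound at five concentrations. GI50 is the concentration that inhibits growth by half. TGI denotes the concentration required for complete inhibition of growth.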
Experiments:
Assay in all cases: growth of human tumour cells (NCI), 48 h
CAKI-1 renal = tested on: CAKI-1 renal
RXF 393 renal = tested on: RXF 393 renal
K-562 leukemia = tested on: K-562 leukemia
NCI-H522 lung = tested on: NCI-H522 lung
ACHN renal = tested on: ACHN renal
SW-620 colon = tested on: SW-620 colon
SF-539 CNS = tested on: SF-539 CNS
U251 CNS = tested on: U251 CNS
NCI-H226 lung = tested on: NCI-H226 lung
UACC-257 melanoma = tested on: UACC-257 melanoma

Structure (SMILES) | GI50 (CAKI-1 renal) | TGI (CAKI-1 renal) | GI50 (RXF 393 renal) | TGI (RXF 393 renal) | GI50 (K-562 leukemia) | TGI (K-562 leukemia) | GI50 (NCI-H522 lung) | TGI (NCI-H522 lung) | GI50 (ACHN renal) | TGI (ACHN renal) | GI50 (SW-620 colon) | TGI (SW-620 colon) | GI50 (SF-539 CNS) | TGI (SF-539 CNS) | GI50 (U251 CNS) | TGI (U251 CNS) | GI50 (NCI-H226 lung) | TGI (NCI-H226 lung) | GI50 (UACC-257 melanoma) | TGI (UACC-257 melanoma)
Cc1nn(-c2nc3ccccc3[nH]2)c2c1C(c1ccc3c(c1)OCO3)CC(=O)N2 (centres undefined) | 2.55 µM | 7.04 µM | 2.47 µM | 6.26 µM | 3.58 µM | > 100 µM | 2.22 µM | 5.41 µM | 4.07 µM | > 100 µM | 2.86 µM | 9.63 µM | 2.16 µM | 4.82 µM | 2.14 µM | 4.79 µM | 2.45 µM | 7.09 µM | 2.41 µM | 6.96 µM
CC1(C)C2C/C(=C\c3ccccc3)C(=O)C1C2 (centres undefined) | – | > 100 µM | – | > 100 µM | – | > 100 µM | – | > 100 µM | – | > 100 µM | – | > 100 µM | – | > 100 µM | – | > 100 µM | – | – | – | > 100 µM
C/C(=C\CC[C@]1(C)OC(C)(C)OC1CC/C(C)=C/CO[Si](c1ccccc1)(c1ccccc1)C(C)(C)C)CC/C=C/CO[Si](C)(C)C(C)(C)C (some centres undefined) | – | > 100 µM | – | > 100 µM | – | > 100 µM | – | > 100 µM | – | > 100 µM | – | > 100 µM | – | > 100 µM | – | > 100 µM | – | > 100 µM | – | > 100 µM
O=C(N/N=C\c1ccc(N(CCCl)CCCl)cc1Cl)c1cccnc1 | 7.06 µM | 48.2 µM | 14.2 µM | 51.9 µM | 7.38 µM | > 100 µM | 21.4 µM | 86 µM | 28.5 µM | > 100 µM | 19.2 µM | > 100 µM | 33.1 µM | > 100 µM | 10.4 µM | 94.1 µM | 0.127 µM | 0.604 µM | 1.08 µM | 3.48 µM
CC12CC3CC(C1)CC(N=[N+]=[N-])(C3)C2 | – | > 100 µM | – | – | – | > 100 µM | – | > 100 µM | – | > 100 µM | – | > 100 µM | – | > 100 µM | – | > 100 µM | – | > 100 µM | – | > 100 µM
CSC1C(=O)c2ccccc2/C(=N/Nc2nc3ccccc3s2)C1C (centres undefined) | 8.85 µM | 20.1 µM | – | – | 1.7 µM | 4.55 µM | 6.95 µM | 26.3 µM | 5.65 µM | 11.7 µM | 12.9 µM | 34.1 µM | 12.5 µM | 21.8 µM | 7.66 µM | 15.6 µM | – | – | 8.87 µM | 18.9 µM
S=C(Nc1ccccc1)N(Cc1ccccc1)c1ccccc1 | – | 90.3 µM | – | 85 µM | – | > 100 µM | – | 62.3 µM | – | > 100 µM | – | > 100 µM | – | 66 µM | – | > 100 µM | – | > 100 µM | – | 54.6 µM
Cn1c(=O)c(C(=O)NC(=O)OCc2ccccc2)cn(CCSCCOC(=O)NCCCCCCNC(=O)OCCSCCn2cc(C(=O)NC(=O)OCc3ccccc3)c(=O)n(C)c2=O)c1=O | – | – | – | > 100 µM | – | > 100 µM | – | > 100 µM | – | > 100 µM | – | > 100 µM | – | > 100 µM | – | > 100 µM | – | > 100 µM | – | –
COc1ccc2c(c1)OC(N)=C(C#N)C2c1ccc(F)cc1 (centres undefined) | – | – | 2.28 µM | 17.8 µM | – | – | 0.604 µM | 27.1 µM | 6.35 µM | > 100 µM | 0.533 µM | > 100 µM | 1.64 µM | 6.58 µM | 3.08 µM | > 100 µM | 20.7 µM | > 100 µM | 24.5 µM | > 100 µM
O=C(CN1C(=O)c2ccccc2C1=O)C(O)CN1C(=O)c2ccccc2C1=O (centres undefined) | – | > 100 µM | – | > 100 µM | – | – | – | > 100 µM | – | 49.3 µM | – | > 100 µM | – | > 100 µM | – | 91.5 µM | – | > 100 µM | – | > 100 µM
O=C(N/C(=C\c1ccc(Oc2ccc(Cl)c(Cl)c2)cc1)c1nc2ccccc2[nH]1)c1ccccc1 | – | 47.9 µM | – | 28.1 µM | – | 59.6 µM | – | 35.5 µM | – | 50.9 µM | – | 33.7 µM | – | 32.7 µM | – | 27.4 µM | – | – | – | –
Clc1nc(Cl)c(Cc2ccccc2)c(Cl)n1 | – | – | – | 11.1 µM | – | > 100 µM | – | 3.04 µM | – | 32 µM | – | > 100 µM | – | 20 µM | – | 33.8 µM | – | 32.4 µM | – | –
N#C[S-].[Au+].c1ccc(CN2[CH-]N(Cc3ccccc3)C(c3ccccc3)=C2c2ccccc2)cc1 | – | – | 0.546 µM | 1.86 µM | – | – | – | – | – | – | 0.421 µM | 2.99 µM | 0.629 µM | 2.13 µM | – | – | – | – | – | –
O=C1C[C@@H]2CCCC[C@@H]2C12SCCS2 | – | > 100 µM | – | > 100 µM | – | > 100 µM | – | > 100 µM | – | > 100 µM | – | > 100 µM | – | > 100 µM | – | > 100 µM | – | – | – | > 100 µM
COC(=O)[C@@H](C)C[C@H](Cc1ccccc1)NC(=O)c1csc([C@@H](C[C@H](C(C)C)N(C)C(=O)C2(NC(=O)[C@H]3CCCCN3C)CC2)OC(C)=O)n1 | – | – | 0.0216 µM | – | 0.00244 µM and 0.00333 µM | > 33.3 µM | 0.000537 µM | 0.00491 µM | – | > 33.3 µM | 0.00317 µM and 0.00333 µM | > 33.3 µM | 0.00868 µM and < 0.00333 µM | – | 0.00913 µM and 0.00333 µM | > 33.3 µM | 0.00333 µM | > 33.3 µM | – | –
Cc1ccc(/C=C2\CCCC\C2=N\O)cc1 | – | > 100 µM | – | – | – | > 100 µM | – | – | – | > 100 µM | – | > 100 µM | – | > 100 µM | – | > 100 µM | – | – | – | –
COc1ccc2nc(C)cc(Nc3ccccc3O)c2c1 | 36.1 µM | > 100 µM | – | – | 17.8 µM | 64.8 µM | 45.2 µM | > 100 µM | 32.1 µM | > 100 µM | 26.7 µM | > 100 µM | 19.2 µM | 42.2 µM | 17.6 µM | 35.3 µM | 28 µM | > 100 µM | 19 µM | 43.6 µM
COc1cc2cccc(NC(=O)c3cc(OC)c(OC)c(OC)c3Br)c2cc1OC | – | 64.6 µM | – | – | – | 46.6 µM | – | 42.1 µM | – | 75.5 µM | – | 71 µM | – | 46.8 µM | – | 78.9 µM | – | – | – | 16.7 µM
O=C1c2c(nc3ccccc3c2-c2ccccc2)CN1Nc1ccccc1 | – | > 100 µM | – | – | – | > 100 µM | – | > 100 µM | – | – | – | > 100 µM | – | – | – | – | – | > 100 µM | – | > 100 µM
